Assay results published in patent US20220280541A1, “METHOD FOR IDENTIFYING CARBOHYDRATE DRUG-SENSITIVE PATIENT IN PATIENTS HAVING ALZHEIMER'S DISEASE” (SHANGHAI GREEN VALLEY PHARMACEUTICAL CO., LTD., priority 2019, published 2022).
Entries after “also recorded” stand apart in the source; their conditions may differ.

Assays:
Th1 cells [1] = experiment: Flow cytometry of brain Th1 cells in 5XFAD (Tg) mice; assay type: in vivo, mouse; settings: 6-month-old 5XFAD mice, 50 mg/kg intraperitoneal daily for one month, versus vehicle
Protocol: Animals. Tg mice and co-housed WT mice (corresponding WT mice generated by mating Tg mice and C57 mice) were housed in the same cage after birth. […] All mice were kept in a 23° C. room with a 12-hour (h) light-dark cycle. Mice were randomly assigned to different groups before treatment. For time course analysis of Tg mice, male and female Tg mice were sacrificed at 2, 3, 5, 7 and 9 months of age. The mouse brain was collected and stained for immune cell analysis and cytokine analysis. […] For OM1 treatment, at the age of 6.5 months, based on 450 mg b.i.d. (twice a day) in the phase III trial, Tg mice were treated with 100 mg/kg OM1 by oral administration once a day for one month. […] The brains and feces of the mice were then used for different analyses.
Flow cytometry sample preparation and analysis. Mice were anesthetized, blood samples were collected into EDTA-containing tubes, and red blood cells were removed using 1×red blood lysis buffer. Before tissue collection, the brains were perfused with ice-cold PBS to avoid sampling the circulating blood immune cells, and the brains were removed, chopped into pieces and dissected according to the introduction of the Adult Brain Dissociation Kit (Miltenyi, Cat No. 130-107-677) using the gentleMACS dissociator (Miltenyi Biotec). The brain homogenate was filtered through a 70-μm cell strainer and centrifuged at 300×g for 5 min at 4° C. The cell pellet was resuspended in cold PBS buffer and centrifuged again at 300×g for 5 min at 4° C. All samples were counted and adjusted to a density of 2-3×10^6/100 μL, labeled with a Live/Dead kit for 30 min, and then centrifuged at 500×g for 3 min at 4° C. The cells were resuspended in 100 μL PBS buffer, blocked with anti-CD16/32 (Biolegend, Cat No. 101320) for 10 min, and incubated with the antibody according to the manufacturers' protocols at 4° C. for 30 min. […]

SLC7A5 = target: T1, SLC7A5 (Mus musculus, UniProt Q9Z127); experiment: Uptake of ^13C-labelled phenylalanine by naive CD4^+ T cells; assay type: cell-based; settings: 0.5 h incubation
T1 construct: endogenous in cells; host or cells: naive CD4+ T cells from splenocytes of C57BL/6 mice (Th0 and IL-12-induced Th1)
T1 sequence (Q9Z127 whole entry): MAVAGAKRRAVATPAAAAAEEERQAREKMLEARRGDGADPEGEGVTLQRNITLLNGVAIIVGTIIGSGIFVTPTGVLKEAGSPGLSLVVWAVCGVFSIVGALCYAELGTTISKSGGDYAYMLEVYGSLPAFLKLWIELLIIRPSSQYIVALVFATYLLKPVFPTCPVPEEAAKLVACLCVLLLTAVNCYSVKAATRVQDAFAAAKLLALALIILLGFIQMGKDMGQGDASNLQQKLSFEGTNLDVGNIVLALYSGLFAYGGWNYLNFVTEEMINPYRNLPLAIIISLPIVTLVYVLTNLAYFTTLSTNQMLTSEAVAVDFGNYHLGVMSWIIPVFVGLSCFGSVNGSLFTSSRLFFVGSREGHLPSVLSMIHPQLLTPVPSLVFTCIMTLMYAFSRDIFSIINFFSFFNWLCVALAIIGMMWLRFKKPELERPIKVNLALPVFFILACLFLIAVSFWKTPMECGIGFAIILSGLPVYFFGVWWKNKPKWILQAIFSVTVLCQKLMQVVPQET
T1 sequence (P10852 whole entry partner): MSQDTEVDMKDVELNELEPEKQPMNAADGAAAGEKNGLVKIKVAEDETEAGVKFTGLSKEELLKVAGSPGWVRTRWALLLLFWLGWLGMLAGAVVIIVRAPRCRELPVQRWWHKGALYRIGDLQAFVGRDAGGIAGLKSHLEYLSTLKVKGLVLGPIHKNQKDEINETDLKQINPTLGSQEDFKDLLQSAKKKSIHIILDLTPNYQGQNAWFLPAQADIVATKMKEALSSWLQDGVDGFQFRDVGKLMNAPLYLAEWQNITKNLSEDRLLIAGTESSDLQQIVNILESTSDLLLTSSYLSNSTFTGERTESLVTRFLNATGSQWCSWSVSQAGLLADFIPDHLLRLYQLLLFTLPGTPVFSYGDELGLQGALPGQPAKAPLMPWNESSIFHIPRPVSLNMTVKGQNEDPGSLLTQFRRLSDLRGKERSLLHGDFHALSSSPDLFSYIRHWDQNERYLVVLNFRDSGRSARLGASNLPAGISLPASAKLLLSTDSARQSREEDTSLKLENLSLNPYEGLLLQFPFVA
Protocol: Uptake of phenylalanine. Naive CD4^+ T cells were separated from the splenocytes of 8-month-old C57BL/6 female mice using the Naive CD4^+ T cell Isolation Kit (Stem Cell, Cat No. 19765) and were induced to Th1 differentiation by 20 ng/mL IL-12. After 3 days, a total of 5×10^5 cells/well Th1 cells and Th0 cells in 0.5 mL of RPMI-1640 medium were plated into 48-well plates. ^13C-labelled phenylalanine and 5 mM amino transporter inhibitor BCH were added into indicated wells. After 0.5 h, cells were collected and washed twice with ice-cold D-PBS. 50 μL deionized water was added and cells were lysed through freezing and thawing twice at −80° C. The cell lysate was centrifuged at 12000×g for 10 min and ^13C-labelled phenylalanine in the supernatant was analyzed by Mass spectrometry.

LAT1 = LAT1 (Homo sapiens, UniProt Q01650); settings: cited from earlier work
LAT1, sequence (Q01650 whole entry, species assumed): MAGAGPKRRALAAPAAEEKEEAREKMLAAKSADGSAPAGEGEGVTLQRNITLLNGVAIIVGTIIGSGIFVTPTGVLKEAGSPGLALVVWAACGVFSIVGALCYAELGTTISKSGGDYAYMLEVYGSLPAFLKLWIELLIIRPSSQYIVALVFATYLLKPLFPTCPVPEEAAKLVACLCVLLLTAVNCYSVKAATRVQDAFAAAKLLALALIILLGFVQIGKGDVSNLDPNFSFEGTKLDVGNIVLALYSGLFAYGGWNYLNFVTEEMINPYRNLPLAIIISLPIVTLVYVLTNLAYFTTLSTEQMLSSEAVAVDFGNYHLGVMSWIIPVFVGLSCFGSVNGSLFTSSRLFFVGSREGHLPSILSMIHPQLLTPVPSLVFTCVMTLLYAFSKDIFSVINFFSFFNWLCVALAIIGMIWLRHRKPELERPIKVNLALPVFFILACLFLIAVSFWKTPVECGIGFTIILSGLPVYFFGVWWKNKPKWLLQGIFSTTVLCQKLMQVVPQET
LAT1, sequence (P08195 102-630 partner, species assumed): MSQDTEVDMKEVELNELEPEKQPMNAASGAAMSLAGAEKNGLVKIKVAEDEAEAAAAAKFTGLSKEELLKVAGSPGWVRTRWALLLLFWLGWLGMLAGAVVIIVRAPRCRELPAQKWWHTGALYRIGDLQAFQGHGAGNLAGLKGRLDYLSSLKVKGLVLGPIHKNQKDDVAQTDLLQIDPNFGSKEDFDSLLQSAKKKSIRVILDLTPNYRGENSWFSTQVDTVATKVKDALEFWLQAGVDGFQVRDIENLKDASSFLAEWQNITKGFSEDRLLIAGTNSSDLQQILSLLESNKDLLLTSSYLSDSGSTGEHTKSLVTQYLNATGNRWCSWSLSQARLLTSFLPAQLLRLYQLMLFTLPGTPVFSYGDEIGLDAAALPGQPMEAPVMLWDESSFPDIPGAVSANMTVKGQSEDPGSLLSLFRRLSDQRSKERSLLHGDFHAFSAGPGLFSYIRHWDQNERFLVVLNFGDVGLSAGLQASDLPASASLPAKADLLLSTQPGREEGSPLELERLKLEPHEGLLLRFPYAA

naive CD4^+ T cells = experiment: In vitro differentiation and proliferation induced by phenylalanine and isoleucine; assay type: cell-based, mouse; settings: amino acid added directly to naive CD4^+ T cell culture
Protocol: In Vitro differentiation and proliferation induced by phenylalanine and isoleucine. Naive CD4^+ T cells were separated from the splenocytes of 8-month-old C57BL/6 female mice using the Naive CD4^+ T cell Isolation Kit (Stem Cell, #19765), and the cells were stained with CellTrace (Thermo Fisher, #C34557). A total of 1×10^5 cells/well in 0.2 mL of RPMI-1640 medium were plated in 96-well plates, and the culture medium was supplemented with cytokines or blocking antibodies. Th0: 10 ng/mL mIL-2; Th1:10 ng/mL mIL-2, 5000 ng/mL 11B11. Phenylalanine (final concentration, 2 mmol/L), isoleucine (final concentration, 2 mmol/L) and OM1 (final concentration, 100 μg/mL) were added into the indicated wells, respectively. After incubation at 37° C. in 5% CO2 for 5 days, cells were acquired on a BD Fortessa cytometer, and data were analyzed using FlowJo software.

Th1 cells [2] = experiment: Intraperitoneal injection of phenylalanine and isoleucine, blood Th1 cells; assay type: in vivo, mouse; settings: WT (C57) mice, intraperitoneal injection 50 mg/kg for 4 days
Protocol: Animals. Tg mice and co-housed WT mice (corresponding WT mice generated by mating Tg mice and C57 mice) were housed in the same cage after birth. WT mice (C57) were housed in separate cages to avoid cross-transfer of microbiota. All mice were kept in a 23° C. room with a 12-hour (h) light-dark cycle. Mice were randomly assigned to different groups before treatment. For time course analysis of Tg mice, male and female Tg mice were sacrificed at 2, 3, 5, 7 and 9 months of age. The mouse brain was collected and stained for immune cell analysis and cytokine analysis. Before the mice were sacrificed, feces were collected for gut microbiota analysis. For OM1 treatment, at the age of 6.5 months, based on 450 mg b.i.d. (twice a day) in the phase III trial, Tg mice were treated with 100 mg/kg OM1 by oral administration once a day for one month. Behavioral tests were performed to monitor cognitive activity after the last treatment. […] All mouse movements that occur in PhenoTyper (HomeCage) are recorded by a computerized tracking system, which calculates the time and number of entrances required to reach 80% of the performance standard (Noldus, Ethovision). […]
Flow cytometry sample preparation and analysis. […] All samples were counted and adjusted to a density of 2-3×10^6/100 μL, labeled with a Live/Dead kit for 30 min, and then centrifuged at 500×g for 3 min at 4° C. […]

**Q.** Which “proportion of pro-inflammatory Th1 cells in the mouse brain” value (Th1 cells [1]; 50 mg/kg) does the source give for `Nc1cc(COc2c(Cl)cc(C[C@H](N)C(=O)O)cc2Cl)c2oc(-c3ccccc3)nc2c1` [JPH203] here?
**A.** effectively inhibits; also recorded: significantly downregulated

**Q.** And the “proportion of pro-inflammatory Th1 cells in the mouse brain” value (Th1 cells [1]; listed as JPH 203, 50 mg/kg)?
**A.** significantly reduces

**Q.** And the “uptake of ^13C-labelled phenylalanine by CD4^+ T cells” value (SLC7A5)?
**A.** blocked

**Q.** What about the “LAT1 inhibition, selectivity” value (LAT1) of the same compound?
**A.** selectively inhibits LAT1

**Q.** Which “Th0 cell differentiation into Th1 cells” value (naive CD4^+ T cells) does the source give for `CC[C@H](C)[C@H](N)C(=O)O` [isoleucine] here?
**A.** increased

**Q.** And the Th1 cell proliferation (naive CD4^+ T cells)?
**A.** increased

**Q.** And the “Th1 cell count in the blood” value (Th1 cells [2])?
**A.** increased significantly

**Q.** Which results are given for `N[C@@H](Cc1ccccc1)C(=O)O` [phenylalanine]?
**A.** Th0 cell differentiation into Th1 cells (naive CD4^+ T cells): increased; Th1 cell proliferation (naive CD4^+ T cells): increased; Th1 cell count in the blood (Th1 cells [2]): increased significantly
